Results: the NIST ThermoML archive (doi:10.1016/j.jct.2017.03.006)

Legend:
[1] = 100 kPa, Liquid, Concentric cylinders viscometry
[2] = xn = mol fraction of the nth substance listed; details: Liquid, x1 = 1; for mass density: Vibrating tube method; for viscosity: Concentric cylinders viscometry

CCCCO [butan-1-ol]
[1]
Details | viscosity [mPa·s]
323.15 K | 1.406
333.15 K | 1.134

CCCCO [butan-1-ol] + Cc1ccc(C)c(C)c1
[2]
Details | mass density [kg/m3] | viscosity [mPa·s]
273.15 K, 100 kPa | 824.6 | –
273.15 K, 1000 kPa | 825.2 | –
273.15 K, 5000 kPa | 827.7 | –
273.15 K, 10000 kPa | 830.8 | –
273.15 K, 20000 kPa | 836.7 | –
273.15 K, 30000 kPa | 842.3 | –
273.15 K, 40000 kPa | 847.6 | –
273.15 K, 50000 kPa | 852.5 | –
273.15 K, 60000 kPa | 857.2 | –
273.15 K, 70000 kPa | 861.7 | –
273.15 K, 80000 kPa | 866 | –
273.15 K, 90000 kPa | 870.1 | –
273.15 K, 100000 kPa | 874 | –
273.15 K, 120000 kPa | 881.5 | –
273.15 K, 140000 kPa | 888.5 | –
293.15 K, 100 kPa | 809.6 | 2.953
293.15 K, 1000 kPa | 810.2 | –
293.15 K, 5000 kPa | 813.1 | –
293.15 K, 10000 kPa | 816.5 | –
293.15 K, 20000 kPa | 822.9 | –
293.15 K, 30000 kPa | 829 | –
293.15 K, 40000 kPa | 834.7 | –
293.15 K, 50000 kPa | 840 | –
293.15 K, 60000 kPa | 845 | –
293.15 K, 70000 kPa | 849.8 | –
293.15 K, 80000 kPa | 854.4 | –
293.15 K, 90000 kPa | 858.7 | –
293.15 K, 100000 kPa | 862.9 | –
293.15 K, 120000 kPa | 870.8 | –
293.15 K, 140000 kPa | 878.2 | –
303.15 K, 100 kPa | – | 2.263
313.15 K, 100 kPa | 794.1 | 1.769
313.15 K, 1000 kPa | 794.8 | –
313.15 K, 5000 kPa | 798 | –
313.15 K, 10000 kPa | 801.8 | –
313.15 K, 20000 kPa | 808.9 | –
313.15 K, 30000 kPa | 815.5 | –
313.15 K, 40000 kPa | 821.6 | –
313.15 K, 50000 kPa | 827.4 | –
313.15 K, 60000 kPa | 832.7 | –
313.15 K, 70000 kPa | 837.8 | –
313.15 K, 80000 kPa | 842.7 | –
313.15 K, 90000 kPa | 847.3 | –
313.15 K, 100000 kPa | 851.7 | –
313.15 K, 120000 kPa | 860 | –
313.15 K, 140000 kPa | 867.8 | –
323.15 K, 100 kPa | – | 1.406
333.15 K, 100 kPa | 778 | 1.134
333.15 K, 1000 kPa | 778.8 | –
333.15 K, 5000 kPa | 782.4 | –
333.15 K, 10000 kPa | 786.5 | –
333.15 K, 20000 kPa | 794.4 | –
333.15 K, 30000 kPa | 801.6 | –
333.15 K, 40000 kPa | 808.2 | –
333.15 K, 50000 kPa | 814.4 | –
333.15 K, 60000 kPa | 820.1 | –
333.15 K, 70000 kPa | 825.6 | –
333.15 K, 80000 kPa | 830.7 | –
333.15 K, 90000 kPa | 835.6 | –
333.15 K, 100000 kPa | 840.3 | –
333.15 K, 120000 kPa | 849 | –
333.15 K, 140000 kPa | 857.1 | –
